In ChEMBL document CHEMBL1201862, “PubChem BioAssay data set” (2004):
Active and inactive are the calls of the source.

What was measured:
[1] = NIH-3T3 fibroblast cytotoxicity, dose response, cytotoxicity control, cell-based, fluorescence, Alamar Blue, secondary assay (AID 2327); type: functional;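 also: NIH-3T3 mouse fibroblasts cultured with fluconazole at 8 µg/mL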
cells [2] = type: functional, cell-based
[3] = C. albicans growth with fluconazole, confirmation, fluorescence, retest (AID 2467); type: functional, cell-based
cells [4] = type: functional, cell-based; remark: listed apart in the source
[5] = cytotoxicity in HEK-293T cells, dose response, cytotoxicity control for TCR NF-kB inhibitor project, luminescence, T-cell screen hits (AID 489026); type: functional, cell-based;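 also: cells exposed to compound about 14 hours before the viability readout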
BJ = assay: cytotoxicity toward Ras-transformed BJeLR fibroblasts, dose response, cell-based, alamar blue fluorescence, cherrypicked samples (AID 2631); type: functional; details: Homo sapiens;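 also: confirmatory dose-response assay in RAS-dependent BJ fibroblasts engineered with TERT, LT and ST, with cytotoxicity read by fluorescence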
INS1 = assay: beta cell apoptosis inhibitors, cytokine rescue, dose response, luminescence, retest (AID 449756); type: functional, cell-based; details: Rattus norvegicus;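 also: cell death triggered by IL-1 beta plus TNF-alpha plus IFN-gamma mixture; protective hits raise ATP signal compared with cytokine alone wells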
[6] = microbe, parasite or virus in culture; type: functional; details: Mycobacterium tuberculosis
[7] = target: Serine/threonine-protein phosphatase (Candida dubliniensis (strain CD36 / CBS 7987 / NCPF 3949 / NRRLY-17841) (Yeast), UniProt B9W6M3); assay: calcineurin pathway inhibitors in yeast reporter, dose response, S. cerevisiae, CDRE-lacZ, luminescence, secondary (AID 2388); type: functional, cell-based;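 also: yeast reporter cells carrying a calcineurin-responsive lacZ construct stimulated with calcium chloride; luminescent beta-galactosidase reporter signal in whole cells rather than isolated phosphatase activity; potency for inhibition where a drop in reporter signal means calcineurin blockade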
Chain of Serine/threonine-protein phosphatase (B9W6M3 whole entry): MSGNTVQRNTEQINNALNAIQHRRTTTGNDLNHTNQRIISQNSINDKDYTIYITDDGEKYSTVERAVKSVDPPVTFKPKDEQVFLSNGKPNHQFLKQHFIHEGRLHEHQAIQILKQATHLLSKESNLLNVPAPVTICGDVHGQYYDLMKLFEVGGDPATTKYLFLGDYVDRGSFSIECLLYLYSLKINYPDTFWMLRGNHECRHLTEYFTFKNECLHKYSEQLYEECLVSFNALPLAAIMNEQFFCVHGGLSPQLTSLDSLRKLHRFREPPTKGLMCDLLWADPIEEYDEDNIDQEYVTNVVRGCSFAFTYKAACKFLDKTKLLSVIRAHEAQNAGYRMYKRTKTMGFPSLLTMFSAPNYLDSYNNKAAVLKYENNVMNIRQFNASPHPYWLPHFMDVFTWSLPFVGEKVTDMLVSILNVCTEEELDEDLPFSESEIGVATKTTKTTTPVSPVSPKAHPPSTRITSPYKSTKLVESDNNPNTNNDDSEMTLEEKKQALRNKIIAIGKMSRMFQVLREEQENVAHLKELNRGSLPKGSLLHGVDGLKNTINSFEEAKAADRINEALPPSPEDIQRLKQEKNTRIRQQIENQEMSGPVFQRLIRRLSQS

[8] = target: ATP-dependent molecular chaperone HSP82 (Candida albicans (strain WO-1) (Yeast), UniProt C4YTQ8); assay: loss of DOC-induced GRE-beta-galactosidase reporter signal, dose response, Hsp90 inhibitor project, S. cerevisiae, luminescence (AID 2400); type: functional, cell-based;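 also: beta-galactosidase luminescence from glucocorticoid response element reporter as proxy for Hsp90 function; inhibitor potency where signal loss means Hsp90 inhibition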
Chain of ATP-dependent molecular chaperone HSP82 (C4YTQ8 whole entry): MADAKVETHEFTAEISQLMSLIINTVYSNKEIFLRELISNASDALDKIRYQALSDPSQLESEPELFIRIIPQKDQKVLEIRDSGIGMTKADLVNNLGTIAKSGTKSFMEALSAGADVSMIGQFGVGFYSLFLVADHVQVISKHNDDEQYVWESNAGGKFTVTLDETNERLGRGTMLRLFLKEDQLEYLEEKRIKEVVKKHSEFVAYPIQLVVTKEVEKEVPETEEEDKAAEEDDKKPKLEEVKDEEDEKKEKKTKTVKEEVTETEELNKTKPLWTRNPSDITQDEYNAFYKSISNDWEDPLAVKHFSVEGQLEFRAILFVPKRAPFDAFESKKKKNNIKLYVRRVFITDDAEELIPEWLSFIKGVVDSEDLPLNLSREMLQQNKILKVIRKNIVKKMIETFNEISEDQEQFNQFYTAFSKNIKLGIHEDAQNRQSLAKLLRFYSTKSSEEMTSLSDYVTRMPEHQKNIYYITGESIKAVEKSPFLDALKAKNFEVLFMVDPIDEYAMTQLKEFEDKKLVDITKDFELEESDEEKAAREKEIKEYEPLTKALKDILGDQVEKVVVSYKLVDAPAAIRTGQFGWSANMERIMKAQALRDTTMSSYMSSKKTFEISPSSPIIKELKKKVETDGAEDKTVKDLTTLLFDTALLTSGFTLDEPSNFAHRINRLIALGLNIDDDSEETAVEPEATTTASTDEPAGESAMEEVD

Melanocortin receptor 4 = Melanocortin receptor 4 (Homo sapiens, UniProt P32245); assay: MC4R antagonist potency on cAMP, dose response, cell-based, TR-FRET, biased antagonists (AID 602298); type: functional;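 also: antagonist potency against agonist-stimulated cAMP production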
[9] = nonselective inhibitors of cellular cAMP signaling, dose response, counter-screen for MC4R biased antagonist project, cell-based, TR-FRET cAMP detection (AID 602305); type: functional;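 also: U2OS cells stimulated with forskolin near its EC80 as the cAMP inducer; potency is for inhibition of forskolin-stimulated cAMP signaling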
Vero = assay: cells; type: functional; details: Chlorocebus sabaeus
Fatty acid synthase [10] = target: T1, Fatty acid synthase (Homo sapiens, UniProt P49327); assay: FAS thioesterase domain inhibitors, dose response, biochemical, endpoint fluorescence intensity, uHTS hits (AID 624327); type: functional;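 also: fluorescence from hydrolysis of an O-methyl fluorescein acyl ester substrate by the enzyme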
T1 sequence (P49327 whole entry, the tested form may be a part): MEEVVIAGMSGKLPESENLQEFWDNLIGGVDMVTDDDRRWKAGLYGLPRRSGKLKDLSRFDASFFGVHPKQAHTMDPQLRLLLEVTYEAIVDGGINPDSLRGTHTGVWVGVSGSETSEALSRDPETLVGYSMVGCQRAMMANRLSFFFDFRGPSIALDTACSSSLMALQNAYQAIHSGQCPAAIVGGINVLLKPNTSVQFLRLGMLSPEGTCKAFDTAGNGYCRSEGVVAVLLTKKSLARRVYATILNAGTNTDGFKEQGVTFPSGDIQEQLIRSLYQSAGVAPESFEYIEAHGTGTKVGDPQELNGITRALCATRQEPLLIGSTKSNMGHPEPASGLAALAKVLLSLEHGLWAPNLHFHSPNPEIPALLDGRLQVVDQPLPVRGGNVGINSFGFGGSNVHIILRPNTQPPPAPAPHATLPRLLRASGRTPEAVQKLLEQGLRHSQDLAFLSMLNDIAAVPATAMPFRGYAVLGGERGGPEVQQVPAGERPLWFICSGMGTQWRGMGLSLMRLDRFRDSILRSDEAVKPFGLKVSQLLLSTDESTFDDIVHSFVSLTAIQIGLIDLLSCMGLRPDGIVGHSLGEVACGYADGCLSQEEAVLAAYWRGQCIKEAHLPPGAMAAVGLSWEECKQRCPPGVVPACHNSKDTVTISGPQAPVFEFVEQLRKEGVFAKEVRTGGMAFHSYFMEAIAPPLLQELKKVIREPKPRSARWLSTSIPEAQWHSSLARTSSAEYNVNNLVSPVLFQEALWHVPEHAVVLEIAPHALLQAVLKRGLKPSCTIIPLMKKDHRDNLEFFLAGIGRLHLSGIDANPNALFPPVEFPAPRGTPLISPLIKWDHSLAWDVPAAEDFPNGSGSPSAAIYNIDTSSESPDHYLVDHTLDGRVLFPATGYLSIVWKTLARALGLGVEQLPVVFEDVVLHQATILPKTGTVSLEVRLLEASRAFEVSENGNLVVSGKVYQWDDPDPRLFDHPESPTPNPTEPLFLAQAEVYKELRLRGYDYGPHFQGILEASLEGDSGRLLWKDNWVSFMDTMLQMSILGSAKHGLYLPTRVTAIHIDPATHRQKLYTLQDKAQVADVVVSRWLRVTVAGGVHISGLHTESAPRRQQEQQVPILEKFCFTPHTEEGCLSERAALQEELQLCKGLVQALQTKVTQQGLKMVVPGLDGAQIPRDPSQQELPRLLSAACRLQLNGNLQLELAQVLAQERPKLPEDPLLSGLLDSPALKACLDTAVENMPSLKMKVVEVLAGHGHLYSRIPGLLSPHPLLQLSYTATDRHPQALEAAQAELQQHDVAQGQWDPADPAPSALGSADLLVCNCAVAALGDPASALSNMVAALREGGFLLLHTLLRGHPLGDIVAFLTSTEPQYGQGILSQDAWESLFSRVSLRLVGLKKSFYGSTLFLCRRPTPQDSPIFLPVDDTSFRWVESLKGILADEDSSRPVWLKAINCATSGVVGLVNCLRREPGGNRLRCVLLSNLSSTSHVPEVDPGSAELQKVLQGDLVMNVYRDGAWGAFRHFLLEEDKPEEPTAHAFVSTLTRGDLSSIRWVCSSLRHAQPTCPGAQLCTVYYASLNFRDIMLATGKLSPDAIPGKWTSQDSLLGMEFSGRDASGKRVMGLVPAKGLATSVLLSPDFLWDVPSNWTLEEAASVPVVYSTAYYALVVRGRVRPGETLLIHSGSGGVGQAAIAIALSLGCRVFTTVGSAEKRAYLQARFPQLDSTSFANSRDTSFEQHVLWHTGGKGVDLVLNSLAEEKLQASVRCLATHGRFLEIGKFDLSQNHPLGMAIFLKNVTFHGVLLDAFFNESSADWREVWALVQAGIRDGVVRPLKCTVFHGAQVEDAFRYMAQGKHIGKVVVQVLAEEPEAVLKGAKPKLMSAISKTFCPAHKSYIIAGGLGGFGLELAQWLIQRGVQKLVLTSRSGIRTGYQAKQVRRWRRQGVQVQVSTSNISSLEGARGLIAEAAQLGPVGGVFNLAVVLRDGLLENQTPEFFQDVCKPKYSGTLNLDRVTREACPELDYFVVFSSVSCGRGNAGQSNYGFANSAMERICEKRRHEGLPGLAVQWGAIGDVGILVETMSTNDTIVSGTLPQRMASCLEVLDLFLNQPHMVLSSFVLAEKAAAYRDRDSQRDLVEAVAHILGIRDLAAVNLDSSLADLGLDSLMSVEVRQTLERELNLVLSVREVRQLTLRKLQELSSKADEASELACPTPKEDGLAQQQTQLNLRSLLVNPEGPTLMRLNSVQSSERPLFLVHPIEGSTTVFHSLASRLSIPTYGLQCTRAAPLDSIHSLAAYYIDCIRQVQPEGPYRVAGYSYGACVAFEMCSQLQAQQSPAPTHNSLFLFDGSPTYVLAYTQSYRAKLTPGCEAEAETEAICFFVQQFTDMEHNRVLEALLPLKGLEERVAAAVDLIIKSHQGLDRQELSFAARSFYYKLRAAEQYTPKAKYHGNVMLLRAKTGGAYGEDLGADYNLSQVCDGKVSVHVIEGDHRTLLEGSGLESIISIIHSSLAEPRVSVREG

Fatty acid synthase [11] = target: T1, Fatty acid synthase; assay: FAS thioesterase domain inhibitors, dose response, biochemical, kinetic fluorescence intensity (AID 624326); type: functional;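 also: rate of fluorescence rise from hydrolysis of a fluorogenic O-methyl fluorescein ester substrate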
Large T antigen = Large T antigen (Simian virus 40, UniProt P03070); type: functional, Betapolyomavirus macacae;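 also: Confirmatory-stage PubChem screen for compounds that inhibit SV40 T antigen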
Chain of Large T antigen (P03070 whole entry): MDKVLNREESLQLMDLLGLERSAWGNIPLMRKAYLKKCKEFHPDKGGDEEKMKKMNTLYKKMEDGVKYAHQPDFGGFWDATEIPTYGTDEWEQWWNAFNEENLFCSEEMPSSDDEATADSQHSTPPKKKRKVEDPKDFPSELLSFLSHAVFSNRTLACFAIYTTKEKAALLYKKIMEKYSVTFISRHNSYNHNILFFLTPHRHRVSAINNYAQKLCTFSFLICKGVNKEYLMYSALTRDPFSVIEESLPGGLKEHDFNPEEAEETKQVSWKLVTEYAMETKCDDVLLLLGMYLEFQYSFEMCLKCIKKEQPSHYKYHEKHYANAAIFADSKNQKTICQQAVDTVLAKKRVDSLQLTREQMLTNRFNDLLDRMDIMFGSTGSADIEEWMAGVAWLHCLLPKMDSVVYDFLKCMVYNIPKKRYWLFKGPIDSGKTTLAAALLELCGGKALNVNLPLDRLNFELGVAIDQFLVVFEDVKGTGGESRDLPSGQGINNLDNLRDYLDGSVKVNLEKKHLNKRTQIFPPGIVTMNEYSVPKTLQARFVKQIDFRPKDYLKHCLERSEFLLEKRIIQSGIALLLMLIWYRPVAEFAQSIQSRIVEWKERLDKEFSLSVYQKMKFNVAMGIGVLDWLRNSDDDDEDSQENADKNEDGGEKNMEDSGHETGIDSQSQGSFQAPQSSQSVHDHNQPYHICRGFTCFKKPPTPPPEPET

[12] = target: T2, Mannose-6-phosphate isomerase (Homo sapiens, UniProt P34949); assay: inhibitors of human PMI, primary screen, biochemical, fluorescence intensity, coupled assay (AID 1209)
T2 sequence (P34949 whole entry): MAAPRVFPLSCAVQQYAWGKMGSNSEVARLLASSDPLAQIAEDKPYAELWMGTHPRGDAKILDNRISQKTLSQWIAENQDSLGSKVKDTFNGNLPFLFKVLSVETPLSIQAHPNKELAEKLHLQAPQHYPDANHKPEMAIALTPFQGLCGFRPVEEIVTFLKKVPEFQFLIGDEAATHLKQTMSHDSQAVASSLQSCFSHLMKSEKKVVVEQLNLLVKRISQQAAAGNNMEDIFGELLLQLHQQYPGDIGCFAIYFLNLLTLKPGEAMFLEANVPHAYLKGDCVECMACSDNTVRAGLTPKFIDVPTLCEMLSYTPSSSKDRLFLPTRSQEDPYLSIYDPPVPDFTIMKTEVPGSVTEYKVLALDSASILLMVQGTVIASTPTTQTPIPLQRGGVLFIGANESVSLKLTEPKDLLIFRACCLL

[13] = target: Dual specificity tyrosine-phosphorylation-regulated kinase 1A (Rattus norvegicus, UniProt Q63470); type: biochemical, Homo sapiens
[14] = target: Protein disulfide-isomerase (Homo sapiens, UniProt P07237); assay: PDI inhibitors, insulin aggregation turbidity, dose response, biochemical, absorbance, cherry-picked samples (AID 602350); type: functional
Chain of Protein disulfide-isomerase (P07237 whole entry): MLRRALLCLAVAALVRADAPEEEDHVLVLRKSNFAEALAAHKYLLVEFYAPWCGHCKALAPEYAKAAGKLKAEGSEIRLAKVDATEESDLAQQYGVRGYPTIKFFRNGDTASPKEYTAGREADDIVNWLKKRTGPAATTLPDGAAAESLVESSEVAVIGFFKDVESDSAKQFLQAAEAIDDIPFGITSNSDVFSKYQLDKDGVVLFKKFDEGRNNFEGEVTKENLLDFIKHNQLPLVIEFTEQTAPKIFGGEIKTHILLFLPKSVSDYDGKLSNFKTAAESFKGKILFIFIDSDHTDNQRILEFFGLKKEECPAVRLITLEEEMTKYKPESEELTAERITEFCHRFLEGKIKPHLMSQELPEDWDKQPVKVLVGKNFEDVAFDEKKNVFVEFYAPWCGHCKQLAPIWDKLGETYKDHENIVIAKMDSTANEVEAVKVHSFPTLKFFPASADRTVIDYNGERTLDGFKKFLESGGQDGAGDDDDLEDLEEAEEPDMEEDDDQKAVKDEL

[15] = target: ALK tyrosine kinase receptor (Homo sapiens, UniProt Q9UM73); type: functional;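 also: ALK tested as one member of a kinase panel screen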
[16] = target: Cyclin-dependent kinase 19 (Homo sapiens, UniProt Q9BWU1); assay: Navigating the Kinome. Panel member name: CDC2L6; type: functional

For `O=C(N/N=C\c1c(O)ccc2ccccc12)c1ccc(S(=O)(=O)N2CCCCC2)cc1`, the EC50 [1] was 3.29 µM (active), the EC50 (cells [2]) was 5.71 µM (active) and the EC50 [3] was 0.178 µM (active). For the same molecule, the EC50 (cells [4]) was > 350 µM (not active), the IC50 [5] was > 80 µM (inactive) and the EC50 (BJ) was 0.558 µM (inconclusive). The AC50 (INS1) was < 0.195 µM (active).

In the case of `Cc1c(Cl)ccc2c1NC(=O)[C@]21N[C@@H](Cc2ccccc2)[C@H]2C(=O)N(c3ccc(F)cc3)C(=O)[C@H]21`, the EC50 [1] is reported as > 150 µM (inactive), the EC50 [3] is reported as 0.206 µM (active) and the CC50 [6] is reported as 33 µM (active). The EC50 [7] was > 180 µM (inactive) and the EC50 [8] was > 160 µM (inactive).

For `COc1cc(OC)cc(Oc2ccc(S(=O)(=O)N3CCCCC3)cc2[N+](=O)[O-])c1`, the IC50 (Melanocortin receptor 4) was > 64.6 µM (inactive) and the IC50 [9] was > 64.6 µM (inactive).

In the case of `O=C(Nc1nnc(-c2ccc(F)cc2)o1)c1cccc([N+](=O)[O-])c1`, the EC50 [1] is reported as > 150 µM (inactive), the EC50 [3] is reported as 0.601 µM (active) and the EC50 [7] is reported as > 180 µM (inactive). For the same molecule, the CC50 (Vero) was 11.4 µM (active), the EC50 [8] was > 150 µM (inactive) and the IC50 (Fatty acid synthase [10]) was 11.9 µM (active). For the same molecule, the IC50 (Fatty acid synthase [11]) was 9.09 µM (active).

For `O=c1c(OC2OC(CO)C(O)C(O)C2O)c(-c2ccc(O)c(O)c2)oc2cc(O)cc(O)c12` (stereo not drawn), the IC50 (Large T antigen) was 2.06 µM (active), the IC50 [12] was 21.3 µM (active) and the AC50 [13] was 7.72 µM (active). For the same molecule, the AC50 [14] was 8.92 µM (active).

In the case of `Cn1cc(Nc2ncc(Br)c(Nc3ccccc3)n2)cn1`, the Ki [15] is reported as 1.26 µM (active) and the Ki [16] is reported as 2 µM (active).

With `C[C@H]1CN([C@@H](C)CO)C(=O)c2cccc(NS(C)(=O)=O)c2O[C@@H]1CN(C)Cc1ccc(Oc2ccccc2)cc1` the AC50 [14] was 19.5 µM (active).
